How the values were obtained:
Type in all cases: cell-based, human
[1] = test system: HepG2 cells; test: HepG2 cells on flat bottom plastic wells, energy sources at a range of concentrations; details: for activity at 30 µM / activity at 100 µM / activity at 330 µM / activity at 1000 µM / activity at 3300 µM / activity at 10000 µM / activity at 15000 µM / activity at 20000 µM: Homo sapiens, HepG2, 72 h, read-out: HepG2 Cells Responses After 72 hours in Culture and a 4 hour Color Development Period; for activity at 30 µM: Conc. 0.03 mM; for activity at 100 µM: Conc. 0.10 mM; for activity at 330 µM: Conc. 0.33 mM; for activity at 1000 µM: Conc. 1.00 mM; for activity at 3300 µM: Conc. 3.3 mM; for activity at 10000 µM: Conc. 10 mM; for activity at 15000 µM: Conc. 15 mM; for activity at 20000 µM: Conc. 20 mM
Summary of the method: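 HepG2 cells plated overnight at 4×10^4 cells/cm^2 in glucose-, glutamine- and pyruvate-free DME with 10% HI FBS, then exposed to each energy source at 0.033 to 20 mM final for 48 to 72 h at 37° C, 5% CO2. MTS/PMS colour read at 490 nm (reference 650 nm) after 4-24 h; cell-free plate OD subtracted, data normalised to % negative control (water, no energy source).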

[2] = test system: Undifferentiated HL-60 cells; test: Energy use by undifferentiated HL-60 cells; details: for activity at 30 µM / activity at 100 µM / activity at 330 µM / activity at 1000 µM / activity at 3300 µM / activity at 10000 µM / activity at 15000 µM / activity at 20000 µM: Homo sapiens, HL-60, 24 h, read-out: Energy Use by Undifferentiated HL-60 Cells; for activity at 30 µM: Conc. 0.03 mM; for activity at 100 µM: Conc. 0.10 mM; for activity at 330 µM: Conc. 0.33 mM; for activity at 1000 µM: Conc. 1.00 mM; for activity at 3300 µM: Conc. 3.3 mM; for activity at 10000 µM: Conc. 10 mM; for activity at 15000 µM: Conc. 15 mM; for activity at 20000 µM: Conc. 20 mM
[3] = test system: HL-60 cells; test: Effect of 1 mM chloramphenicol on HL-60 energy utilization; details: for Effect of 1 mM chloramphenicol on HL-60 Energy Utilization: negative control without chloramphenicol
Summary of the method: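 Washed HL-60 cells (5×10^4/well) in DME-R with chloramphenicol (1 mM final) were exposed to test energy sources at 0.033 to 20 mM final for 24 h at 37° C, 5% CO2. MTS/MPMS reagent was then added and read 24 h later at 490 nm (650 nm reference). Cell-free plate OD was subtracted, and values were given as % of the negative control without chloramphenicol.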

[4] = energy source 0.03 mM with 1 mM chloramphenicol
[5] = energy source 0.10 mM with 1 mM chloramphenicol
[6] = energy source 0.33 mM with 1 mM chloramphenicol
[7] = energy source 1.00 mM with 1 mM chloramphenicol
[8] = energy source 3.3 mM with 1 mM chloramphenicol
[9] = energy source 10 mM with 1 mM chloramphenicol
[10] = energy source 15 mM with 1 mM chloramphenicol
[11] = energy source 20 mM with 1 mM chloramphenicol

| SMILES | activity at 30 µM [1] [%] | activity at 100 µM [1] [%] | activity at 330 µM [1] [%] | activity at 1000 µM [1] [%] | activity at 3300 µM [1] [%] | activity at 10000 µM [1] [%] | activity at 15000 µM [1] [%] | activity at 20000 µM [1] [%] | activity at 30 µM [2] [%] | activity at 100 µM [2] [%] | activity at 330 µM [2] [%] | activity at 1000 µM [2] [%] | activity at 3300 µM [2] [%] | activity at 10000 µM [2] [%] | activity at 15000 µM [2] [%] | activity at 20000 µM [2] [%] | Effect of 1 mM chloramphenicol on HL-60 Energy Utilization [3, 4] | Effect of 1 mM chloramphenicol on HL-60 Energy Utilization [3, 5] | Effect of 1 mM chloramphenicol on HL-60 Energy Utilization [3, 6] | Effect of 1 mM chloramphenicol on HL-60 Energy Utilization [3, 7] | other results |
| --- | --- | --- | --- | --- | --- | --- | --- | --- | --- | --- | --- | --- | --- | --- | --- | --- | --- | --- | --- | --- | --- |
| NC(=O)CC[C@H](N)C(=O)O [L-glutamine] | 103 | 114 | 205 | 218 | 260 | 224 | 146 | 111 | 167 | 214 | 227 | 237 | 249 | 220 | 198 | 172 | 33.7 % of negative control | 39.8 % of negative control | 60.6 % of negative control | 69.0 % of negative control | response in words ([1]; 0.033 to 20 mM, 72 hour culture): dose dependent response in the 72 hour culture up to 3.3 mM; energy source use in words ([2]; undifferentiated HL-60 cells): responsive to high concentrations; Effect of 1 mM chloramphenicol on HL-60 Energy Utilization [3, 8]: 85.0 % of negative control; Effect of 1 mM chloramphenicol on HL-60 Energy Utilization [3, 9]: 90.0 % of negative control; Effect of 1 mM chloramphenicol on HL-60 Energy Utilization [3, 10]: 89.0 % of negative control; Effect of 1 mM chloramphenicol on HL-60 Energy Utilization [3, 11]: 82.1 % of negative control; protective effect of energy source ([3]; in the presence of 1 mM chloramphenicol): limit the effect to maintenance of the cells at the level seen with no chloramphenicol and no added energy source |
| N[C@@H](Cc1c[nH]cn1)C(=O)O [L-histidine] | 125 | 142 | 173 | 148 | 180 | 210 | 195 | 72.1 | 119 | 117 | 105 | 118 | 162 | 144 | 149 | 104 | 6.9 % of negative control | 4.3 % of negative control | 7.3 % of negative control | 7.2 % of negative control | Effect of 1 mM chloramphenicol on HL-60 Energy Utilization [3, 8]: 13.9 % of negative control; Effect of 1 mM chloramphenicol on HL-60 Energy Utilization [3, 9]: 19.1 % of negative control; Effect of 1 mM chloramphenicol on HL-60 Energy Utilization [3, 10]: 13.1 % of negative control; Effect of 1 mM chloramphenicol on HL-60 Energy Utilization [3, 11]: 8.4 % of negative control |
| CC(C)[C@H](N)C(=O)O [L-valine] | 119 | 149 | 170 | 125 | 176 | 132 | 108 | 87.6 | 89.6 | 93.2 | 83.8 | 78.6 | 86.4 | 89 | 97.7 | 104 | 6.6 % of negative control | 4.3 % of negative control | 4.0 % of negative control | 3.2 % of negative control | Effect of 1 mM chloramphenicol on HL-60 Energy Utilization [3, 8]: 4.3 % of negative control; Effect of 1 mM chloramphenicol on HL-60 Energy Utilization [3, 9]: 5.5 % of negative control; Effect of 1 mM chloramphenicol on HL-60 Energy Utilization [3, 10]: 2.6 % of negative control; Effect of 1 mM chloramphenicol on HL-60 Energy Utilization [3, 11]: 7.5 % of negative control |
| Cc1cn([C@H]2C[C@H](O)[C@@H](CO)O2)c(=O)[nH]c1=O [Thymidine] | 115 | 158 | 180 | 150 | 135 | 114 | 101 | 134 | 84.1 | 106 | 101 | 90.9 | 111 | 80.3 | 81.3 | 52.3 | 8.4 % of negative control | 5.8 % of negative control | 6.4 % of negative control | 3.1 % of negative control | Effect of 1 mM chloramphenicol on HL-60 Energy Utilization [3, 8]: 8.8 % of negative control; Effect of 1 mM chloramphenicol on HL-60 Energy Utilization [3, 9]: 5.8 % of negative control; Effect of 1 mM chloramphenicol on HL-60 Energy Utilization [3, 10]: 6.0 % of negative control; Effect of 1 mM chloramphenicol on HL-60 Energy Utilization [3, 11]: 7.3 % of negative control |
